Results on one compound are retold here after patent US20210220489A1, “AMYGDALAR NEURAL ENSEMBLE THAT ENCODES THE UNPL[…] PAIN” (The Board of Trustees of the Leland Stanford Junior …, priority 2020, published 2021).

SMILES strings stand for the structures.

Assay [1] relates to noci-TRAP^hM4 mice. In words: Reflexive and affective-motivational pain behaviors after chemogenetic inhibition of the BLA nociceptive ensemble. Particulars: CNO 10 mg/kg; mechanical and thermal noxious stimuli. The format is in vivo. The procedure: We habituated mice to a first testing room (room-A) for three consecutive days. Execution of all TRAP procedures occurred in Room-A. During these habituation days, no nociceptive stimuli were delivered, and no baseline thresholds were measured (i.e., mice were naïve to pain experience before the TRAP procedure). In room-A, we placed individual mice within red plastic cylinders (10.16-cm D), with a red lid, on a raised perforated, flat metal platform (60.96-cm H). […] This stimulus frequency was selected to closely match the protocols used in the microendoscope imaging experiments in which significant Ca^2+ transients were reliably detected in BLA Camk2a+ neurons. […]
To evaluate mechanical reflexive sensitivity, we used a logarithmically increasing set of 8 von Frey filaments (Stoelting), ranging in gram force from 0.07- to 6.0-g (93). […] Using the Up-Down statistical method, the 50% withdrawal mechanical threshold scores were calculated for each mouse and then averaged across the experimental groups. The response frequency was calculated as the number of positive responses out of 10 stimulations, delivered at 30-s intervals. […]

In assay [2] the test system is o-TRAP^hM4 mice. Briefly: Pain behaviors evoked by optogenetic activation of nociceptors (o-TRAP^hM4). The format is in vivo. Particulars: noxious transdermal light stimuli. From the text: Different AAV serotypes display unique infection tropisms. […] To express the light-sensitive cation channel channelrhodopsin2 (ChR2) in putative primary afferent nociceptors, we intrathecally injected AAV6-hSyn-ChR2(H134R)-eYFP immediately following the i.c. BLA injections of AAV-DIO-DREADD(Gi)-mCherry in TRAP mice while remaining anesthetized under isoflurane (1-2% maintenance). Specifically, we shaved a small patch of fur on the back, wiped with alcohol and Betadine, and then inserted a 33G beveled needle connected to a WPI Nanofil syringe between the L5/L6 vertebrae and through the dura (confirmation by presence of reflexive tail flick). We slowly administered the virus was over 20 s. We retuned mice to their home cage for 4-6 weeks before behavioral verification of ChR2 expression. […] As we sought expression in lumbar DRGs for the purposes of our behavioral experiments that involve sensory testing on the hind limbs, we performed a behavioral screening of each mouse for transdermal light-responsivity when light was applied to the hindpaw. We placed mice inside individual red plastic cylinders (10.16-cm D) on a thin glass surface. […] We measured whether an immediate nociceptive hindpaw reflex and/or pain affective-motivational behaviors (described below) occurred in response to the light indicated ChR2 expression in nociceptors. […]

Take `C[N+]1([O-])CCN(C2=Nc3cc(Cl)ccc3Nc3ccccc32)CC1` [CNO, clozapine-N-oxide]: the “attending and escape behaviors” value in assay [1] is listed as “significantly reduced”; in assay [2] it was “reduces”.
